Measurements as given in US6552216B1, “Molecular model for VLA-4 inhibitors” (Biogen, Inc., priority 1996, dated 2003).

Target: VLA-4 (Homo sapiens, UniProt P05556+P13612)
Assay: VLA-4 direct binding assay (DBA)
Text: (§1) Those skilled in the art routinely perform such assays, and can readily determine the activity of the experimental compound.
as §1

Chain of VLA-4 (P13612 34-1032): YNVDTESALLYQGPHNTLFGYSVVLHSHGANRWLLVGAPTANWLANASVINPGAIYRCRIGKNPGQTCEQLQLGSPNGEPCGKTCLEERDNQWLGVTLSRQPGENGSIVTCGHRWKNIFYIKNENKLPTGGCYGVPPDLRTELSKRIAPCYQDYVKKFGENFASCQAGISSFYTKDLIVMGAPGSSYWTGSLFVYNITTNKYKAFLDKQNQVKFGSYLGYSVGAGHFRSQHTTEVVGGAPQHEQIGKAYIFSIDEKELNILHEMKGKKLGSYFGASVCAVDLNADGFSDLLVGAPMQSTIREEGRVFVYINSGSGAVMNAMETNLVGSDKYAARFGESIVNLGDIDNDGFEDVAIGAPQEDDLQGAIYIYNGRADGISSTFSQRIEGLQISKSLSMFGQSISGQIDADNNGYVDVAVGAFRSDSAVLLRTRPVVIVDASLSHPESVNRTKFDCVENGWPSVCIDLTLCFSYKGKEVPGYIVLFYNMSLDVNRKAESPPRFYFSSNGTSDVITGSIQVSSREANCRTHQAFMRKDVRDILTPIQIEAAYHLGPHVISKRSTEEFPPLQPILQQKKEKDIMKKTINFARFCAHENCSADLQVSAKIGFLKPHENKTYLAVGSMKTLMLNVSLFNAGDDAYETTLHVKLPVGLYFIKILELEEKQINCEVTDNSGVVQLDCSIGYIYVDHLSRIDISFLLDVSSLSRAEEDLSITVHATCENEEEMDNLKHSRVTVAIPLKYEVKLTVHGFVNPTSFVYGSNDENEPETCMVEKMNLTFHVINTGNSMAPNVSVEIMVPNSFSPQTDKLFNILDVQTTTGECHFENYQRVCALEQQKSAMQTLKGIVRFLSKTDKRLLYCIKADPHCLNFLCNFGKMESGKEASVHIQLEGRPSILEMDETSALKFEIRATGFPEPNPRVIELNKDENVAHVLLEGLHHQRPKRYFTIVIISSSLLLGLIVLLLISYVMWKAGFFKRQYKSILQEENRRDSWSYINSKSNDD
Chain of VLA-4 (P05556 21-798): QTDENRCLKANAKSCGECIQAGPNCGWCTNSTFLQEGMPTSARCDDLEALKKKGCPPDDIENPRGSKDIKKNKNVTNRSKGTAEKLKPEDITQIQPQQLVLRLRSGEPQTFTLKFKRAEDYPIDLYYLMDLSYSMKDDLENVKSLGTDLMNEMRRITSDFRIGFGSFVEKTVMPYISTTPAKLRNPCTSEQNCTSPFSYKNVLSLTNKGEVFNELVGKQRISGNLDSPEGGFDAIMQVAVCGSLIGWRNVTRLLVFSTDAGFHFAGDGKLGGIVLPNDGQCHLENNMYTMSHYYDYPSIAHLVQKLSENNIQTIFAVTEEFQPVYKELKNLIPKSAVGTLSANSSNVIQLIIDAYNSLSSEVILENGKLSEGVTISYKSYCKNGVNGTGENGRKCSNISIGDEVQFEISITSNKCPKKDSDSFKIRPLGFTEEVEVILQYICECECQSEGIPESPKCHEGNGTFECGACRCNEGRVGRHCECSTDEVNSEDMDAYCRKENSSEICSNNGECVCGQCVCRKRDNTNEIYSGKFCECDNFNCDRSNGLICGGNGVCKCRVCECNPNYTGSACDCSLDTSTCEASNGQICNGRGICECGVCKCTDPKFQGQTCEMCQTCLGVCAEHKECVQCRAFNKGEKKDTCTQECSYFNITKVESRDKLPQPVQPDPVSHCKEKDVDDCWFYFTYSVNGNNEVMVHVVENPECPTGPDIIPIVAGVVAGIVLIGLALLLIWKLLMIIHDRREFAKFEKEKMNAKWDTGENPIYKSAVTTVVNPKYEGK

CC(C)C[C@H](NC(=O)Cc1ccccc1)C(=O)N[C@@H](CC(=O)O)C(=O)N[C@H](C(=O)N1CCC[C@H]1C(=O)O)C(C)C [Phenylacetyl-Leu-Asp-Val-Pro]
IC50: 2 µM
